Assay results reported in patent US20230146455A1, “TREATMENT OF INFLAMMATORY DISEASES WITH PEPTIDES AND PHARMACEUTICAL COMPOSITIONS” (Yuyu Pharma, Inc., priority 2020, published 2023).
“And” between values parts separate entries of the source, which are not always exact repeats. Equal entries are not always repeated. Where a SMILES comes first, the peptide text is derived from it. [ ]: non-standard residue; d: D form. Hyp = O=C(O)[C@@H]1C[C@@H](O)CN1

Tests used:
IL-6 = test: Example 8 main study Luminex, LPS hPBMCs: IL-6; assay type: cell-based, human; settings: for IL-6 Concentration: single replicates (1st, 2nd, 3rd); for LPS-induced IL-6 (in words): at as low as 5 μM, LPS 5 ug/mL 24 hrs
Procedure: (§1) Human PBMCs were pretreated with YY-101, YDE-011, YDE-043 or reference compound; Xiidra® at various concentration (ranging from […] to 500 nM) for 2 h before stimulation. An equal volume of 0.5% DMSO was used as a vehicle control. Then, the cells were treated with LPS at 5 ug/ml, which was selected based on the pilot study. The supernatants from treated cells were harvested at 24 h and placed in a 96 well for Luminex cytokine & chemokine profiling using a Luminex 200 multiplex assay (Luminex; R&D system, USA).
(§2) The main study arm with triplicate wells per group in a 24-well plate: • 1. Blank • 2. PBMC: 0.5% DMSO • 3. PBMC+LPS (5 ug/ml) • 4. PBMC+YY-101 500 nM • 5. PBMC+YY-101 50 nM • 6. PBMC+YY-101 5 nM • 7. PBMC+YY-101 0.5 nM • 8. PBMC+LPS (5 ug/ml)+Xiidra® 500 nM • 9. PBMC+LPS (5 ug/ml)+Xiidra® 50 nM • 10. PBMC+LPS (5 ug/ml)+Xiidra® 5 nM • 11. PBMC+LPS (5 ug/ml)+Xiidra® 0.5 nM • 12. PBMC+LPS (5 ug/ml)+Xiidra® 0.05 nM • 13. PBMC+LPS (5 ug/ml)+Xiidra® 0.005 nM • 14. PBMC+LPS (5 ug/ml)+YY-101 500 nM • 15. PBMC+LPS (5 ug/ml)+YY-101 50 nM • 16. PBMC+LPS (5 ug/ml)+YY-101 5 nM • 17. PBMC+LPS (5 ug/ml)+YY-101 0.5 nM • 18. PBMC+LPS (5 ug/ml)+YY-101 0.05 nM • 19. PBMC+LPS (5 ug/ml)+YY-101 0.005 nM • 20. PBMC+LPS (5 ug/ml)+YDE-011 500 nM • 21. PBMC+LPS (5 ug/ml)+YDE-011 50 nM • 22. PBMC+LPS (5 ug/ml)+YDE-011 5 nM • 23. PBMC+LPS (5 ug/ml)+YDE-011 0.5 nM • 24. PBMC+LPS (5 ug/ml)+YDE-011 0.05 nM • 25. PBMC+LPS (5 ug/ml)+YDE-011 0.005 nM • 26. PBMC+LPS (5 ug/ml)+YDE-043 500 nM • 27. PBMC+LPS (5 ug/ml)+YDE-043 50 nM • 28. PBMC+LPS (5 ug/ml)+YDE-043 5 nM • 29. PBMC+LPS (5 ug/ml)+YDE-043 0.5 nM • 30. PBMC+LPS (5 ug/ml)+YDE-043 0.05 nM • 31. PBMC+LPS (5 ug/ml)+YDE-043 0.005 nM
(§3) Multiplex assay was used to measure 30 cytokines and chemokines. The 1:200 diluted cell supernatant and serial dilution of the standard were dispensed into a 96 well plate at 50 ul/well. Then, the pre-mixed cocktail of antibody-coated magnetic beads was dispensed at 50 ul/well and incubated at room temperature for 2 h in a horizontal orbital microplate shaker at 800±500 rpm. The beads were washed using a magnetic device to prevent loss. The biotin-antibody was dispensed in 50 ul of each well and incubated at room temperature for 1 h in a shaker at 800±500 rpm. After washing, streptavidin-PE was added at 50 ul/well and incubated at room temperature for 30 min in a shaker under the same conditions. Finally, after washing, wash buffer (100 ul/well) was added to the plate and incubated in a shaker for 2 min. The Luminex™ 200 setting were set according to the manufacturer's protocol. The data was calculated with a standard five-parameter logistic nonlinear regression analysis of the data (xPonent software 4.2, USA). Results were presented as concentration (ng/ml or pg/ml).

IL-8/CXCL8 = test: Example 8 main study Luminex, LPS hPBMCs: IL-8/CXCL8; assay type: cell-based, human; settings: for IL-8/CXCL8 Concentration: single replicates (1st, 2nd, 3rd); for LPS-induced IL-8 (in words): at as low as 5 μM, LPS 5 ug/mL 24 hrs
Procedure: as §1, §2, §3

[1] = PBMC + LPS(5 ug/ml) + test article 0.005 nM
[2] = PBMC + LPS(5 ug/ml) + test article 0.05 nM
[3] = PBMC + LPS(5 ug/ml) + test article 0.5 nM
[4] = PBMC + LPS(5 ug/ml) + test article 5 nM
[5] = PBMC + LPS(5 ug/ml) + test article 50 nM
[6] = PBMC + LPS(5 ug/ml) + test article 500 nM

Structure (SMILES)	IL-6 Concentration, Mean (IL-6; [1])	IL-6 Concentration (IL-6; [1])	IL-6 Concentration, Mean (IL-6; [2])	IL-6 Concentration (IL-6; [2])	IL-6 Concentration, Mean (IL-6; [3])	IL-6 Concentration (IL-6; [3])	IL-6 Concentration, Mean (IL-6; [4])	IL-6 Concentration (IL-6; [4])	IL-6 Concentration, Mean (IL-6; [5])	IL-6 Concentration (IL-6; [5])	IL-6 Concentration, Mean (IL-6; [6])	IL-6 Concentration (IL-6; [6])	LPS-induced IL-6 (in words) (IL-6)	IL-8/CXCL8 Concentration, Mean (IL-8/CXCL8; [1])	IL-8/CXCL8 Concentration (IL-8/CXCL8; [1])	IL-8/CXCL8 Concentration, Mean (IL-8/CXCL8; [2])	IL-8/CXCL8 Concentration (IL-8/CXCL8; [2])	IL-8/CXCL8 Concentration, Mean (IL-8/CXCL8; [3])	IL-8/CXCL8 Concentration (IL-8/CXCL8; [3])	IL-8/CXCL8 Concentration, Mean (IL-8/CXCL8; [4])	other results
CC(C)C[C@H](NC(=O)[C@H](CCC(N)=O)NC(=O)CNC(=O)[C@@H]1C[C@@H](O)CN1)C(=O)NCC(=O)O [YDE-043] (H-[Hyp]GQLG-OH; N-terminus and C-terminus assumed)	17678.1 pg/mL	15726.2 pg/mL and 16772.5 pg/mL and 20535.6 pg/mL	14253.4 pg/mL	13386.9 pg/mL and 14716.3 pg/mL and 14657.0 pg/mL	14811.5 pg/mL	15322.2 pg/mL and 15084.6 pg/mL and 14027.7 pg/mL	16507.0 pg/mL	16380.0 pg/mL and 17224.5 pg/mL and 15916.4 pg/mL	16067.3 pg/mL	16962.8 pg/mL and 16570.3 pg/mL and 14668.8 pg/mL	14209.8 pg/mL	13873.4 pg/ml (2×) and 14882.6 pg/ml	significantly reduced	59062.0 pg/mL	56206.5 pg/mL and 53607.2 pg/mL and 67372.3 pg/mL	51146.6 pg/mL	48485.5 pg/mL and 53107.5 pg/mL and 51846.7 pg/mL	52327.4 pg/mL	55144.2 pg/mL and 51593.2 pg/mL and 50244.9 pg/mL	56067.9 pg/mL	IL-8/CXCL8 Concentration (IL-8/CXCL8; [4]): 56540.0 pg/mL and 58269.2 pg/mL and 53394.4 pg/mL; IL-8/CXCL8 Concentration, Mean (IL-8/CXCL8; [5]): 55575.7 pg/mL; IL-8/CXCL8 Concentration (IL-8/CXCL8; [5]): 57759.9 pg/mL and 58638.2 pg/mL and 50329.0 pg/mL; IL-8/CXCL8 Concentration, Mean (IL-8/CXCL8; [6]): 51601.8 pg/mL; IL-8/CXCL8 Concentration (IL-8/CXCL8; [6]): 51413.7 pg/mL and 49678.2 pg/mL and 53713.6 pg/mL; LPS-induced IL-8 (in words) (IL-8/CXCL8): significantly reduced
CC(C)C[C@H](NC(=O)CNC(=O)[C@H](CC(C)C)NC(=O)[C@H](CCC(N)=O)NC(=O)CNC(=O)[C@@H]1C[C@@H](O)CN1)C(=O)N[C@@H](C)C(=O)NCC(=O)N1CCC[C@H]1C(=O)N[C@@H](CCCCN)C(=O)O [YDE-011] (H-[Hyp]GQLGLAGPK-OH)	16114.6 pg/mL	16843.8 pg/mL and 15250.9 pg/mL and 16249.2 pg/mL	18589.3 pg/mL	18843.4 pg/mL and 18343.3 pg/mL and 18581.4 pg/mL	15456.8 pg/mL	15322.2 pg/mL and 15654.9 pg/mL and 15393.5 pg/mL	13541.9 pg/mL	12094.3 pg/mL and 12947.9 pg/mL and 15583.6 pg/mL	14621.7 pg/mL	17248.3 pg/mL and 9892.0 pg/mL and 16724.9 pg/mL	14568.3 pg/mL	19367.5 pg/mL and 9383.5 pg/mL and 14953.9 pg/mL	significantly reduced	54720.2 pg/mL	55905.6 pg/mL and 51994.7 pg/mL and 56260.2 pg/mL	61143.7 pg/mL	61568.6 pg/mL and 60755.7 pg/mL and 61106.8 pg/mL	52309.1 pg/mL	52927.0 pg/mL and 52269.8 pg/mL and 51730.5 pg/mL	46534.3 pg/mL	IL-8/CXCL8 Concentration (IL-8/CXCL8; [4]): 45587.7 pg/mL and 43107.6 pg/mL and 50907.7 pg/mL; IL-8/CXCL8 Concentration, Mean (IL-8/CXCL8; [5]): 46922.1 pg/mL; IL-8/CXCL8 Concentration (IL-8/CXCL8; [5]): 54235.8 pg/mL and 55272.7 pg/mL and 31257.8 pg/mL; IL-8/CXCL8 Concentration, Mean (IL-8/CXCL8; [6]): 49501.9 pg/mL; IL-8/CXCL8 Concentration (IL-8/CXCL8; [6]): 66288.2 pg/mL and 31741.3 pg/mL and 50476.2 pg/mL; LPS-induced IL-8 (in words) (IL-8/CXCL8): significantly reduced
